Experiments:
[1] = system: ECs in NSC/EC co-spheroids; experiment: qRT-PCR of EC activity and angiogenic markers in co-spheroids encapsulated in gelatin-based hydrogel; type: cell-based; conditions: FGF2 1 μg/mL in gelatin-based hydrogel, 3 days
Protocol: Total RNA from the adherent cells or cell spheroids formed on CS-HA substrates and embedded in the hydrogels was extracted by Trizol reagent (Invitrogen) as the manufacturer's instructions. One microgram of total RNA was further subjected to the cDNA synthesis. cDNA pool was generated by RevertAid First Strand cDNA Synthesis Kit (MBI Fermentas, Canada) using the standard protocol. qRT-PCR was performed by StepOnePlus thermos cycler (Applied Biosystems) using the DyNAmo Flash SYBR Green qPCR Kit (Finnzymes Oy, Finland). […]
To investigate whether EC activity in NSC/EC co-spheroids was promoted after encapsulation in gelatin-based hydrogel, the co-spheroids that were cultured on CS-HA substrates for 2 days were collected, and then encapsulated by gelatin-based hydrogel. After encapsulation for 3 days, the expression of several markers representative of mitogenic and angiogenic activities of ECs was determined.
On the other hand, a relative long-term culture of co-spheroids in the gelatin-based hydrogel containing FGF2 for 12 days was also performed, and the activity of ECs was analyzed by gene expression.
To further verify the angiogenic potential of ECs in the co-spheroids, more angiogenic markers for ECs including angiopoietin-1, angiopoietin-2, and tyrosine kinase 1 (Flt-1) were analyzed.

NSC/EC co-spheroids = experiment: Morphology and relative size of co-spheroids encapsulated in hydrogels; type: cell-based; conditions: FGF2 1 μg/mL
Protocol: To observe the morphological alteration of NSC/EC co-spheroids embedded in the hydrogels, the cells were labeled with fluorescent dyes before seeding on CS-HA substrates. After gelation, the culture medium was added and changed every 2 days. The morphologies of cell spheroids formed on CS/CS-HA substrates and encapsulated in the various hydrogels were observed by a fluorescence microscope (Leica, DMIRB), and the relative sizes of cell spheroids were determined by ImageJ software (National Institutes of Health, USA).
To support the long-term growth of NSC/EC co-spheroids, the co-spheroids derived from the CS-HA substrates were respectively embedded in the CS-based and gelatin-based hydrogels. […] On the other hand, the cell growth rates in the spheroids were evaluated by the spheroid size. Cells in EC mono-spheroids grew faster than those in NSC mono-spheroids, and the growth rate in NSC/EC co-spheroids was the slowest in both hydrogels, though the difference among each group was not statistically significant.
In some embodiments, the fibroblast growth factor 2 (FGF2) protein was used to promote the growth of co-spheroids in hydrogels. In order to evenly add FGF2 to hydrogels, FGF2 (PeproTech, USA) was added to the hydrogel solution and mixed before the gelation. The final concentration of the FGF2 protein in hydrogels was 1 μg/mL. […]

fibroblast growth factor 2 [FGF2]
expression of KDR, VEGF, ITGb1, VE-cadherin upon addition of FGF2 [1]: did not seem to be apparently affected | growth rates of the co-spheroids after FGF2 induction (NSC/EC co-spheroids; in CS-based hydrogel): not promoted | growth of co-spheroids after introduction of FGF2 (NSC/EC co-spheroids; in gelatin-based hydrogel, from 6 days after encapsulation): lightly enhanced

Source: patent US11913030B2, “Method of preparing mimicking angiogenic co-spheroids and application thereof” (NATIONAL TAIWAN UNIVERSITY, priority 2018, dated 2024)
